{"source": "the RepoRT retention time repository (doi:10.1021/acs.analchem.7b00925)", "assay": "HILIC, Merck SeQuant ZIC-HILIC, 100 × 2.1 mm, 3.5 µm, 25 °C, 0.3 mL/min, estimated dead time 0.73 min; A: water + 0.1% formic acid, pH 3; B: acetonitrile + 0.1% formic acid, pH 3; gradient (min/%B) 0/95 1.5/95 13.5/40 15.5/40 29.7/25 33.5/25 34.5/95 41.5/95", "conditions": "stereoisomer not certain"}
{"smiles": "Nc1ccc(C(=O)O)c(O)c1", "note": "[4-Aminosalicylic acid]", "values": [{"measurement": "LC retention time", "value": 1.3, "unit": "min"}]}
{"smiles": "NCCC(=O)NC(Cc1cnc[nH]1)C(=O)O", "note": "(stereo not drawn) [Carnosine]", "values": [{"measurement": "LC retention time", "value": 13.1, "unit": "min"}]}
{"smiles": "CC(NC(=O)C(Cc1ccccc1)NC(=O)C(N)CC(=O)O)C(=O)O", "note": "(stereo not drawn) [Asp-Phe-Ala]", "values": [{"measurement": "LC retention time", "value": 6.71, "unit": "min"}]}
{"smiles": "C[N+](C)(C)[O-]", "note": "[Trimethylamine N-oxide]", "values": [{"measurement": "LC retention time", "value": 6.67, "unit": "min"}]}
{"smiles": "O=C1CCCCN1", "note": "[2-Piperidone]", "values": [{"measurement": "LC retention time", "value": 1.85, "unit": "min"}]}
{"smiles": "Cn1cnc2nc(N)[nH]c(=O)c21", "note": "[7-methylguanine]", "values": [{"measurement": "LC retention time", "value": 6.62, "unit": "min"}]}
{"smiles": "CN1CCC[C@H]1C(=O)O", "note": "[N-Methyl-L-proline]", "values": [{"measurement": "LC retention time", "value": 7.26, "unit": "min"}]}
{"smiles": "CC(=O)OCC[N+](C)(C)C", "note": "[Acetylcholine]", "values": [{"measurement": "LC retention time", "value": 3.46, "unit": "min"}]}
{"smiles": "CC(O)CN", "note": "(stereo not drawn) [1-amino-2-propanol]", "values": [{"measurement": "LC retention time", "value": 8.65, "unit": "min"}]}
{"smiles": "NC(C(=O)O)c1ccccc1", "note": "(stereo not drawn) [Phenylglycine]", "values": [{"measurement": "LC retention time", "value": 6.41, "unit": "min"}]}
{"smiles": "NCCc1cnc[nH]1", "note": "[Histamine]", "values": [{"measurement": "LC retention time", "value": 14.4, "unit": "min"}]}
{"smiles": "C[N+](C)(C)CCCCC(=O)[O-]", "note": "[5-Aminovaleric acid betaine]", "values": [{"measurement": "LC retention time", "value": 6.01, "unit": "min"}]}
{"smiles": "NC(CCSCC(N)C(=O)O)C(=O)O", "note": "(stereo not drawn) [Cystathionine]", "values": [{"measurement": "LC retention time", "value": 10.5, "unit": "min"}]}
{"smiles": "CC(=O)NCCCC[C@H]([NH3+])C(=O)[O-]", "note": "[N6-Acetyl-L-lysine]", "values": [{"measurement": "LC retention time", "value": 7.59, "unit": "min"}]}
{"smiles": "Cn1cncc1CC(NC(=O)CCN)C(=O)O", "note": "[L-Anserine]", "values": [{"measurement": "LC retention time", "value": 12.6, "unit": "min"}]}
{"smiles": "C[n+]1cccc(C(N)=O)c1", "note": "[1-Methylnicotinamide]", "values": [{"measurement": "LC retention time", "value": 8.28, "unit": "min"}]}
{"smiles": "CC(=O)c1cnccn1", "note": "[2-Acetylpyrazine]", "values": [{"measurement": "LC retention time", "value": 0.96, "unit": "min"}]}
{"smiles": "CC(=O)NC1C(O)CC(O)(C(=O)O)OC1C(O)C(O)CO", "note": "(stereo not drawn) [N-Acetylneuraminic acid]", "values": [{"measurement": "LC retention time", "value": 7.06, "unit": "min"}]}
{"smiles": "O=C(O)c1c[nH]c2ccccc12", "note": "[Indole-3-carboxylic acid]", "values": [{"measurement": "LC retention time", "value": 1.46, "unit": "min"}]}
{"smiles": "O=S(=O)(O)CCN1CCOCC1", "note": "[MES]", "values": [{"measurement": "LC retention time", "value": 6.42, "unit": "min"}]}
{"smiles": "CC(=O)NC(CCC[NH+]=C(N)N)C(=O)[O-]", "note": "(stereo not drawn) [N-Acetylarginine]", "values": [{"measurement": "LC retention time", "value": 8.35, "unit": "min"}]}
{"smiles": "C1CCNC1", "note": "[Pyrrolidine]", "values": [{"measurement": "LC retention time", "value": 7.71, "unit": "min"}]}
{"smiles": "OCC1OC(O)C(O)C(O)C1O", "note": "(stereo not drawn) [Glucose]", "values": [{"measurement": "LC retention time", "value": 6.86, "unit": "min"}]}
{"smiles": "Nc1nc2c([nH]c(=O)n2C2OC(CO)C(O)C2O)c(=O)[nH]1", "note": "(stereo not drawn) [8-hydroxyguanosine]", "values": [{"measurement": "LC retention time", "value": 6.1, "unit": "min"}]}
{"smiles": "C[N+](C)(C)C(Cc1c[nH]c2ccccc12)C(=O)[O-]", "note": "(stereo not drawn) [Tryptophan betaine]", "values": [{"measurement": "LC retention time", "value": 5.65, "unit": "min"}]}
{"smiles": "Cn1c(=O)[nH]c2[nH]c(=O)[nH]c2c1=O", "note": "[1-methyluric acid]", "values": [{"measurement": "LC retention time", "value": 4.66, "unit": "min"}]}
{"smiles": "O=C1OC(CO)C(O)C(O)C1O", "note": "(stereo not drawn) [Gluconolactone]", "values": [{"measurement": "LC retention time", "value": 4.49, "unit": "min"}]}
{"smiles": "Oc1cccnc1", "note": "[3-Hydroxypyridine]", "values": [{"measurement": "LC retention time", "value": 6.36, "unit": "min"}]}
{"smiles": "C[N+]1(C)CCCCC1C(=O)[O-]", "note": "(stereo not drawn) [Homostachydrine]", "values": [{"measurement": "LC retention time", "value": 6.93, "unit": "min"}]}
{"smiles": "CC(=O)NC(CCCN)C(=O)O", "note": "(stereo not drawn) [N-Acetyl-ornithine]", "values": [{"measurement": "LC retention time", "value": 8.65, "unit": "min"}]}
{"smiles": "NCCCC(N)C(=O)O", "note": "(stereo not drawn) [Ornithine]", "values": [{"measurement": "LC retention time", "value": 12.5, "unit": "min"}]}
{"smiles": "NCC(O)c1ccc(O)c(O)c1", "note": "(stereo not drawn) [Noradrenaline]", "values": [{"measurement": "LC retention time", "value": 9.31, "unit": "min"}]}
{"smiles": "COC(=O)C(Cc1ccccc1)NC(=O)C(N)CC(=O)O", "note": "(stereo not drawn) [Aspartame]", "values": [{"measurement": "LC retention time", "value": 5.89, "unit": "min"}]}
{"smiles": "CNCCc1cnc[nH]1", "note": "[Na-methylhistamine]", "values": [{"measurement": "LC retention time", "value": 15.2, "unit": "min"}]}
{"smiles": "NC(N)=NCC(=O)O", "note": "[Glycocyamine]", "values": [{"measurement": "LC retention time", "value": 8.52, "unit": "min"}]}
{"smiles": "Nc1ccccc1C(=O)O", "note": "[2-Aminobenzoic acid]", "values": [{"measurement": "LC retention time", "value": 1.24, "unit": "min"}]}
{"smiles": "O=c1ccn(C2OC(COP(=O)(O)O)C(O)C2O)c(=O)[nH]1", "note": "(stereo not drawn) [Uridine mono-phosphate]", "values": [{"measurement": "LC retention time", "value": 6.99, "unit": "min"}]}
{"smiles": "NCCc1c[nH]c2ccccc12", "note": "[Tryptamine]", "values": [{"measurement": "LC retention time", "value": 6.1, "unit": "min"}]}
{"smiles": "CC1CCCN1", "note": "(stereo not drawn) [2-Methylpyrrolidine]", "values": [{"measurement": "LC retention time", "value": 6.72, "unit": "min"}]}
{"smiles": "O=C(O)c1cc(O)c(O)c(O)c1", "note": "[Gallic acid]", "values": [{"measurement": "LC retention time", "value": 4.67, "unit": "min"}]}
{"smiles": "O=C(O)CNC(=O)C=Cc1ccccc1", "note": "[N-Cinnamoylglycine]", "values": [{"measurement": "LC retention time", "value": 1.34, "unit": "min"}]}
{"smiles": "Cc1ncc(CO)c(CN)c1O", "note": "[Pyridoxamine]", "values": [{"measurement": "LC retention time", "value": 13.1, "unit": "min"}]}
{"smiles": "NCC(=O)NCC(=O)O", "note": "[Glycyl-glycine]", "values": [{"measurement": "LC retention time", "value": 9.29, "unit": "min"}]}
